Measured values as given in US12492188B2, “1H-benzo[D]imidazole derivatives as TLR9 inhibitors for the treatment of fibrosis” (BRISTOL-MYERS SQUIBB COMPANY, priority 2020, dated 2025).
Like-named read-outs stand apart in the source and are kept apart here.

Target: T1, human TLR9 (Homo sapiens, UniProt Q9NR96)
T1 construct: host or cells: HEK-Blue cells (HEK293-derived reporter line)
T1 sequence (Q9NR96 26-1032): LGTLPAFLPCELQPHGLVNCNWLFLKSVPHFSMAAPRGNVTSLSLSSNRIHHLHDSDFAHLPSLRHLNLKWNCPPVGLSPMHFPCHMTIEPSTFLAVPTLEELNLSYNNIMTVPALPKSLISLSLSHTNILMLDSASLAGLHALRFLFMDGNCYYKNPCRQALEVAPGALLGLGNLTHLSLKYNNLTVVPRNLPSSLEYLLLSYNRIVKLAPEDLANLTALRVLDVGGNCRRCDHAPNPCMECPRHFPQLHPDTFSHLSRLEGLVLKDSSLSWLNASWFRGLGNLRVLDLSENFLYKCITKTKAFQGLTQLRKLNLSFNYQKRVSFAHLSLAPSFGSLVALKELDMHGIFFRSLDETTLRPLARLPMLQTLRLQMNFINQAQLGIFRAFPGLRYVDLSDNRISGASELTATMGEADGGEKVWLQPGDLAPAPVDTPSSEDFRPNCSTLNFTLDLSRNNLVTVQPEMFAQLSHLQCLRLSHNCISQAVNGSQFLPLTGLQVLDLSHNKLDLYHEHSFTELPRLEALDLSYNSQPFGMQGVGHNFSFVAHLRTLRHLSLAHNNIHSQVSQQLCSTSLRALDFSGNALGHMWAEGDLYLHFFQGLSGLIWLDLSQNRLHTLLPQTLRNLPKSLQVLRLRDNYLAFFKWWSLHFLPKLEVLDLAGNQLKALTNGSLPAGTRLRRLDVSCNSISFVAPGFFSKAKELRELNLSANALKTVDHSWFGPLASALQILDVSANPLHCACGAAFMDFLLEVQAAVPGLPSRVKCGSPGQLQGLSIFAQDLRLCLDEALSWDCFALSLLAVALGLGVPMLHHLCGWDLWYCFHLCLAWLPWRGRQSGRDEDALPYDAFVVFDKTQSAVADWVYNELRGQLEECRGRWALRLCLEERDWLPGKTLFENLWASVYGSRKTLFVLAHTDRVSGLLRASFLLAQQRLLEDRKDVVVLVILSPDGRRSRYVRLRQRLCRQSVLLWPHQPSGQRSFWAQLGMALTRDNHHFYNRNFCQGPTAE
Test: TLR9 inhibition reporter assay (HEK-Blue cells, secreted embryonic alkaline phosphatase reporter)
Format: cell-based
Experimental: TLR7/8/9 Inhibition Reporter Assays
HEK-Blue™-cells (Invivogen) overexpressing human TLR7, TLR8 or TLR9 receptors were used for screening inhibitors of these receptors using an inducible SLAP (secreted embryonic alkaline phosphatase) reporter gene under the control of the […] minimal promoter fused to five NF-κB and AP-1-binding sites. Briefly, cells are seeded into Greiner 384 well plates (15000 cells per well for TLR7, 20,000 for TLR8 and 25,000 for TLR9) and then treated with test compounds in DMSO to yield a final dose response concentration range of 0.05 nM-50 μM. After a 30 minute compound pre-treatment at room temperature, the cells are then stimulated with a TLR7 ligand (gardiquimod at a final concentration of 7.5 μM), TLR8 ligand (R848 at a final concentration of 15.9 μM) or TLR9 ligand (ODN2006 at a final concentration of 5 nM) to activate NF-κB and AP-1 which induce the production of SLAP. After a 22 hour incubation at 37° C., […], SLAP levels are determined with the addition of HEK-Blue™ Detection reagent (Invivogen), a cell culture medium that allows for detection of SLAP, according to manufacturer's specifications. The percent inhibition is determined as the […] in the HEK-Blue signal present in wells treated with agonist plus DMSO alone compared to wells treated with a known inhibitor.

[1] = HEK-Blue cells overexpressing human TLR9, stimulated with ODN2006 5 nM, 22 hour incubation, reporter readout
[2] = HEK-Blue cells overexpressing human TLR9, stimulated with ODN2006 5 nM, read-out: TLR 9 IC50
[3] = HEK-Blue human TLR9 reporter cells

Question: Which results are given for `Cc1cc(-c2ccc(OC3CCN(C(C)C)CC3)cc2)cc2c1nc(-c1ccc(S(C)(=O)=O)cc1)n2C` [Example 416, 6-(4-((1-isopropylpiperidin-4-yl)oxy)phenyl)-1,4-dimethyl-2-(4-(methylsulfonyl)phenyl)-1H-benzo[d]imidazole]?
Answer: IC50 [1]: 1200 nM; IC50 [2]: 1190 nM

Question: How did the IC50 [2] turn out when `Cc1cc2nc(-c3ccc(S(C)(=O)=O)cc3)n(C)c2cc1C1CCN(C2CCN(CC(C)C)CC2)CC1` [Example 331, 6-(1′-isobutyl-[1,4′-bipiperidin]-4-yl)-1,5-dimethyl-2-(4-(methylsulfonyl)phenyl)-1H-benzo[d]imidazole] was run?
Answer: 143 nM

Question: And the IC50 [3]?
Answer: 140 nM

Question: Which IC50 [1] does the source give for `Cc1cc(C2CCN(C3CCN(CC(C)C)CC3)CC2)cc2[nH]c(-c3cccc(OC(F)F)c3)nc12` [Example 76, 2-(3-(difluoromethoxy)phenyl)-6-(1′-isobutyl-[1,4′-bipiperidin]-4-yl)-4-methyl-1H-benzo[d]imidazole] here?
Answer: 260 nM

Question: What about the IC50 [2] of the same molecule?
Answer: 257 nM

Question: Which results are given for `COc1ccc(-c2nc3cc(F)c(C4CCN(C5CCN(C(C)C)CC5)CC4)cc3[nH]2)cc1OC` [Example 129, 2-(3,4-dimethoxyphenyl)-5-fluoro-6-(1′-isopropyl-[1,4′-bipiperidin]-4-yl)-1H-benzo[d]imidazole]?
Answer: IC50: 190 nM; IC50 [2]: 185 nM

Question: What does the source list for `Cc1cc(C2CCN(C3CCN(CC(C)C)CC3)CC2)cc2[nH]c(-c3ccc(OC(F)F)cc3)nc12` [Example 78, 2-(4-(difluoromethoxy)phenyl)-6-(1′-isobutyl-[1,4′-bipiperidin]-4-yl)-4-methyl-1H-benzo[d]imidazole]?
Answer: IC50 [1]: 270 nM; IC50 [2]: 267 nM

Question: Which results are given for `Cc1cc(C2CCN(C3CCN(CC(C)C)CC3)CC2)cc2[nH]c(-c3ccc4cnccc4c3)nc12` [Example 74, 6-(6-(1′-isobutyl-[1,4′-bipiperidin]-4-yl)-4-methyl-1H-benzo[d]imidazol-2-yl)isoquinoline]?
Answer: IC50 [1]: 37 nM; IC50 [2]: 37 nM

Question: With `Cc1cc(C2CCN(C3CCN(CC(C)C)CC3)CC2)cc2[nH]c(-c3ccc(OC(F)(F)F)cc3)nc12` [Example 63, 6-(1′-isobutyl-[1,4′-bipiperidin]-4-yl)-4-methyl-2-(4-(trifluoromethoxy)phenyl)-1H-benzo[d]imidazole] as the molecule, how does the IC50 [1] read?
Answer: 200 nM

Question: And the IC50 [2]?
Answer: 196 nM

Question: What does the source list for `Cc1cc(C2CCN(C3CCCN(C(C)C)CC3)CC2)cc2c1nc(-c1ccc(S(C)(=O)=O)cc1)n2C` (stereo not drawn) [Example 134, 6-(1-(1-isopropylazepan-4-yl)piperidin-4-yl)-1,4-dimethyl-2-(4-(methylsulfonyl)phenyl)-1H-benzo[d]imidazole]?
Answer: IC50: 21 nM; IC50 [2]: 20 nM

Question: For `Cc1cc(CN2CCC(c3cc(C)c4nc(-c5ccc(S(C)(=O)=O)cc5)n(C)c4c3)CC2)cc(C)n1` [Example 418, 6-(1-((2,6-dimethylpyridin-4-yl)methyl)piperidin-4-yl)-1,4-dimethyl-2-(4-(methylsulfonyl)phenyl)-1H-benzo[d]imidazole], which IC50 [1] is on record?
Answer: 2500 nM

Question: And the IC50 [2]?
Answer: 2510 nM

Question: For `Cc1cc(C2CCN(C3CC4CCC(C3)N4C(C)C)CC2)cc2[nH]c(-c3ccc(S(C)(=O)=O)c(F)c3)nc12` (stereo not drawn) [Example 348, 2-(3-fluoro-4-(methylsulfonyl)phenyl)-6-(1-(8-isopropyl-8-azabicyclo[3.2.1]octan-3-yl)piperidin-4-yl)-4-methyl-1H-benzo[d]imidazole], which IC50 [2] is on record?
Answer: 180 nM

Question: And the IC50 [3]?
Answer: 180 nM

Question: How did the IC50 [1] turn out when `Cc1cc(C2CCN(C3CCN(CC(C)C)CC3)CC2)cc2[nH]c(-c3ccc(OC(F)F)c(F)c3)nc12` [Example 69, 2-(4-(difluoromethoxy)-3-fluorophenyl)-6-(1′-isobutyl-[1,4′-bipiperidin]-4-yl)-4-methyl-1H-benzo[d]imidazole tris(2,2,2-trifluoroacetate)] was run?
Answer: 240 nM

Question: And the IC50 [2]?
Answer: 241 nM

Question: Which IC50 does the source give for `COc1ccc(-c2nc3c(C)cc(C4CCN(C5CC6CCC(C5)N6CC5CC5)CC4)cc3n2C)cc1OC` (stereo not drawn) [Example 148, 6-(1-(8-(cyclopropylmethyl)-8-azabicyclo[3.2.1]octan-3-yl)piperidin-4-yl)-2-(3,4-dimethoxyphenyl)-1,4-dimethyl-1H-benzo[d]imidazole] here?
Answer: 34 nM

Question: What about the IC50 [2] of the same molecule?
Answer: 34 nM
